This is an account of results in patent publication US9624167B2, “N-(4-hydroxy-4-methyl-cyclohexyl)-4-phenyl-benzenesulfonamides and N-(4-hydroxy-4-methyl-cyclohexyl)-4-(2-pyridyl)benzenesulfonamides and their therapeutic use” (PIMCO 2664 LIMITED, priority 2013, dated 2017).

Converted amounts (≈) assume the structure as drawn.

By solubility is commonly meant the dissolved amount per volume that the medium holds. A word on the IC50: it is the midpoint of a concentration-inhibition curve. For orientation: inhibition means how much of the control response was suppressed. Low readings indicate little suppression, high ones strong suppression.

The nature of series [1]: Human Liver Microsomal Stability. In kind it is in vitro ADME. Particulars: both sexes, pooled liver microsomes, pH 7.4, human liver microsomes 0.5 mg/mL protein, 1 μM compound, 6 time points 0-60 min, two replicates, read-out: T1/2 (2). The procedure:
Metabolic stability was measured by determining the rate of disappearance of compound in the presence of human liver microsomal preparations, as quantified by liquid chromatography mass-spectrometry and […] mass-spectrometry (LC-MS/MS).
Metabolic stability of test compounds was measured by determination of the rate of disappearance of the compound when incubated in the presence of human liver microsomes. Liver microsomes are prepared from the endoplasmic reticulum of hepatocytes and are the primary source of the most important enzymes (cytochrome P450s) involved in drug metabolism. Study of drug stability in the presence of liver microsomes is accepted as a valuable model permitting rapid prediction of in vivo drug stability.
Human liver microsomes were obtained from a commercial source. Test compounds (1 μM) were incubated with pooled liver microsomes (male and female). Samples were incubated for a 60 minute period and removed at up to 6 time points and analysed by LC-MS/MS for the presence/amount of test compounds.
Microsomes (final protein concentration 0.25 or 0.5 mg/mL), 0.1 M phosphate buffer pH 7.4, and test compound (final concentration 1 μM; diluted from 10 mM stock solution to give a final DMSO concentration of 0.1%) were incubated at 37° C. prior to the addition of Nicotinamide adenine dinucleotide phosphate (NADPH, final concentration 1 mM) to initiate the reaction. The final incubation volume was 100 μL. A control incubation was included for each compound tested, where 0.1 M phosphate buffer pH 7.4 was added instead of NADPH. […]
Each compound was incubated for 0, 5, 15, 30, 45 or 60 minutes. The reactions were stopped by the addition of 100 μL ice-cold acetonitrile containing internal standard (0.001 mM glipizide) at the appropriate time points. The incubation plates were centrifuged at 4000 rpm for 15 minutes at 4° C. to precipitate the protein and 0.1 mL aliquots were analysed using LC-MS/MS, with the conditions shown in the following table.
From a plot of the natural logarithm of the peak area ratio (i.e., the ratio of compound peak area:internal standard peak area) against time, the gradient of the line was determined.
(In general: Liver microsomes are a subcellular fraction often used to study metabolism.)

A short description of series [2]: Aqueous (FaSSIF) solubility. Particulars: fasted state simulated intestinal fluid (FaSSIF), pH 6.8, two replicates, read-out: Solubility (2). In kind it is physicochemical. The procedure:
Solubility was measured by equilibration of the compound in fasted state simulated intestinal fluid (FaSSIF) and quantified by high-performance liquid chromatography (HPLC).
Aqueous solubility was measured by equilibration of compounds with fasted state simulated intestinal fluid (FaSSIF) and quantified spectrophotometrically.
FaSSIF was prepared as described below:
Preparation of blank FaSSIF: 0.21 g of sodium hydroxide (NaOH) pellets, 1.97 g of dihydrogen sodium phosphate (NaH2PO4.2H2O) and 3.09 g of sodium chloride (NaCl) were dissolved in 400 mL of deionised water. […]
Preparation of FaSSIF: 0.056 g of SIF Powder (containing sodium taurocholate and lecithin) (Phares AG) was dissolved in 25 mL of blank FaSSIF and stirred until the powder was completely dissolved. The solution was allowed to stand for 2 hours during which it became opalescent; it was used within 24 hours. The final solution composition was characterised as follows: • Sodium taurocholate: 3 mM • Lecithin: 0.75 mM • Osmolarity: 270±10 mOsmol • pH: 6.5
The optical density was measured at the end of the incubation period for test compounds and a reference used to determine solubility. In brief, two samples were prepared for each determination: a reference sample consisting of a stock solution of test compound in DMSO diluted in system solution (a phosphate free, low absorption buffer) and propanol; and a test sample (prepared in triplicate) consisting of 0.5 mL FaSSIF spiked with test compound at 0.2 mM. Each sample was incubated at room temperature for 16 hours with constant shaking at 250 rpm. At the end of the incubation period, 0.3 mL of each sample was filtered through a pION filter plate (PION, Woburn Mass.), diluted 1:1 with propanol and scanned using UV spectrophotometry at λmax ([…]) using a Spectra Max Plus—Version 2.1000 (Molecular Devices, Sunnyvale, Calif.), with μSOL Explorer solubility determination software (pION, Woburn, Mass.).
FaSSIF solubility was calculated using the following formula:
[formula] wherein: • “OD” is the optical density; • “Cr” is the concentration of the reference (33.4 μM); and • “molecular weight” is for the test compound (e.g., 381.44 for ABD735).

In series [3] the test system is IL-6 release from LPS-stimulated Thp1 macrophages. Put plainly: Thp1 Macrophage IL-6 Release Assay. Particulars: Homo sapiens, THP-1, 1.7 × 10^5 cells/well, 96-well plates, 3 days, 9 point curve, IL6 measured 18 hours after LPS, read-out: IC50 (2). It is filed as cell-based. An excerpt:
Anti-inflammatory effects were further characterised by assessing the production of interleukin-6 (IL-6) by human Thp-1 derived macrophages stimulated with a pro-inflammatory stimulus bacterial lipopolysaccharide (LPS). LPS acts with a cell-surface receptor, Toll-like receptor-4 to activate the NFκB and IRF signalling pathways to produce IL-6. The reduction of IL—in this stimulated assay is indicative of anti-inflammatory effects with utility in the treatment of conditions in which IL-6 production is aberrant.
In vitro potency of test compounds in human cells was determined by incubation with Thp1 macrophages and subsequent stimulation with an inflammatory stimulus (bacterial lipopolysaccharide (LPS)) followed by measurement of cellular interleukin-6 (IL-6) release.
Thp1 cells were plated at a concentration of 1×10^5 cells/well or 1.7×10^5 cells/well in 500 μL or 150 μL RPMI complete media containing 1% penicillin-streptomycin and 10% heat inactivated foetal bovine serum in 24-well plates or 96-well plates, respectively and allowed to adhere overnight. The following day, the cells were stimulated with phorbol myristic acid (PMA) at a final concentration of 100 nM (24-well plates) or 200 nM (96-well plates) to induce differentiation and maintained for up to 8 days with a medium change at 5 days if cells were cultured to 8 days. Test compounds were prepared as […] solutions in DMSO and then serially diluted in DMSO prior to dilution in culture medium.
The diluted compounds were added to the cultures 1 hour prior to stimulation with 100 ng/mL LPS. Following a 16 or 18 hour incubation at 37° C./5% CO2, the cell culture medium was collected and assayed for human IL-6 levels using the human IL-6 duo-set ELISA kit (R&D Systems). The average results for each test compound (n=3) were expressed as a percent (%) of the average control value. The average values across the concentrations tested were then plotted and the IC50 for the inhibition of IL-6 was calculated by fitting the data to a 4-parameter IC50 equation using software from Grafit version 6.0.12 (Erithacus Software Ltd., by Dr Robin Leatherbarrow) or GraphPad Prism version 5.04 for Windows (GraphPad Software, La Jolla, Calif., USA, www.qraphpad.com). Each experiment was repeated twice and the data are presented as the mean IC50 from both experiments.

A further series deals with J774 macrophages. Put plainly: Resazurin Macrophage J774 Viability Assay. It is filed as cell-based. Particulars: Mus musculus, 12 point concentration range 10 μM to 0.5 nM, n = 4 replicates, mean of 3 independent experiments, 72 hour incubation, read-out: IC50 (2). Background: Resazurin is reduced to fluorescent resorufin, in cell work by metabolically active cells.
In the next series the target is T1, hERG (Homo sapiens, UniProt Q12809).
T1 construct: expressed in transfected cells; host or cells: Chinese Hamster Ovary cells (hERG-CHO), stably transfected
Nature of the series: hERG Ion Channel Assay (Q-patch, hERG-CHO cells). In kind it is cell-based. Particulars: human, CHO cells stably transfected with hERG (hERG-CHO), pH 7.4, 30 μM, hERG tail current. The method, then: The activity of the compounds against the hERG ion channel was tested. The assay was conducted using the automated path-clamp, Q-patch method using stably transfected Chinese Hamster Ovary cells (hERG-CHO). hERG-CHO cells were cultured in F-12 Kaighn's Nutrient Mixture medium (Invitrogen)+10% FBS at 37° C. for 1-3 days. Cells were kept at 30° C. for 24 to 48 hours prior to patch clamping in order to increase the hERG current amplitude. Subsequently, the cells were harvested by trypsinisation, and kept in Serum Free Medium (SFM) in the Q-patch cell preparation state for up to 6 hours at room temperature before being washed and re-suspended in extracellular solution and applied to the patch clamp sites for data recording.
Patch-clamp voltage protocol: After whole cell configuration was achieved, the cell was held at −80 mV. A 50 millisecond pulse to −40 mV was delivered to measure the leaking current, which was subtracted from the tail current on-line. Then the cell was depolarized to +20 mV for 2 seconds, followed by a one second pulse to −40 mV to reveal hERG tail current. This paradigm was delivered once every 5 seconds to monitor the current amplitude.
Extracellular solution: 137 mM NaCl, 4 mM KCl, 1.8 mM CaCl2, 1 mM MgCl2, 10 mM D(+)-glucose, 10 mM HePES buffer (pH adjusted to 7.4 with NaOH).
After the whole cell configuration was achieved, the extracellular solution (control) was applied first and the cell was stabilized for 2 minutes in extracellular solution. The test compound was then applied from low concentrations to high concentrations cumulatively. The cell was incubated with each test concentration for 5 minutes. During each incubation, the cell was repetitively stimulated using the voltage protocol described above, and the tail current amplitude was continuously monitored.
• (1) Peak tail current >100 pA in control. • (2) Initial run-down <30% and the run-down stops before first application of the test compound. • (3) Leak currents <50% of the control peak tail currents at any time. • (4) rs<20 MΩ throughout the experiment.
The degree of inhibition (%) was obtained by measuring the tail current amplitude, induced by a one second test pulse to −40 mV after a two second pulse to +20 mV, before and after incubation with the test compound. The difference in current was normalized to control and multiplied by 100 in order to obtain the percent inhibition.
Concentration (log) response curves were fitted to a logistic equation (three parameters assuming complete block of the current at very high test compound concentrations) to generate estimates of the 50% inhibitory concentration (IC50). The concentration-response relationship of each compound was constructed from the percentage reductions of current amplitude by sequential concentrations.
(In general: hERG is a cardiac potassium channel; its block is linked to QT prolongation.)

T1 sequence (Q12809 whole entry): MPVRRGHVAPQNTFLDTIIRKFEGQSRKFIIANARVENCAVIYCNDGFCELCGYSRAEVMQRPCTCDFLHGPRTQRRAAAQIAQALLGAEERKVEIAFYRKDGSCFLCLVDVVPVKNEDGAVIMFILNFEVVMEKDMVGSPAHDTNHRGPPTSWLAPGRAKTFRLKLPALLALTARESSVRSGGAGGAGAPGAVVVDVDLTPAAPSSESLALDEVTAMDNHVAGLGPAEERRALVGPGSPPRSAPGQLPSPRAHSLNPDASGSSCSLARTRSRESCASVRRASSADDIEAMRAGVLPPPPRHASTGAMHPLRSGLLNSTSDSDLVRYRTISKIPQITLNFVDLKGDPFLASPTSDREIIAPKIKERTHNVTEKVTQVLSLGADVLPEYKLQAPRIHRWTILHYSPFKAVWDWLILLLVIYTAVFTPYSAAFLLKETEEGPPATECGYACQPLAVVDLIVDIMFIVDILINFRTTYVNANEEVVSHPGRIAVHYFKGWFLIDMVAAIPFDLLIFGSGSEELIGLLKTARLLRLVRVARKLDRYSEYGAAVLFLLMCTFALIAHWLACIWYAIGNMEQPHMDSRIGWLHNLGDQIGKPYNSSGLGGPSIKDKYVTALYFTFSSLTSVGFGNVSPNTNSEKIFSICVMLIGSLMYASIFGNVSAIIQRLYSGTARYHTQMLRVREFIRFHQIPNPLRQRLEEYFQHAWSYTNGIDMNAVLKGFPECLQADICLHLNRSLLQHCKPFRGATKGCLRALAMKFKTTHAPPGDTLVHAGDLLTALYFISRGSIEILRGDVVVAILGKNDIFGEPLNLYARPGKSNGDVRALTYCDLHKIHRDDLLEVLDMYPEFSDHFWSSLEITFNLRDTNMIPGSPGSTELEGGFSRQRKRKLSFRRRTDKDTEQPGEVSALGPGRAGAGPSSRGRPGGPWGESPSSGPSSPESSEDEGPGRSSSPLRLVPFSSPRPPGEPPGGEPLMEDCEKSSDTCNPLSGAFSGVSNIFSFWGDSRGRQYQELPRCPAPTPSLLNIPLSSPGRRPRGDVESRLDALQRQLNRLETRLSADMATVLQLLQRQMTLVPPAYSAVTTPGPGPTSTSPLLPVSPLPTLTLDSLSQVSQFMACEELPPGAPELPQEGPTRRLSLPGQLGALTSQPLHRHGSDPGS

Take `C[C@]1(O)CC[C@H](NS(=O)(=O)c2ccc(-c3ccc(F)cc3C#N)cc2)CC1` [HMC-C-05-A, 2′-Cyano-4′-fluoro-N-((1r,4r)-4-hydroxy-4-methylcyclohexyl)-[1,1′-biphenyl]-4-sulfonamide]: the half-life at 1 μM in series [1] was 2.05 h. Moreover, the solubility in series [2] was 190 µg/mL (≈ 489 µM). For the same compound, the IC50 in series [3] was 1020 nM; with J774 macrophages it was 2460 nM.
Taken in the same sequence, the figures for `C[C@]1(O)CC[C@H](NS(=O)(=O)c2ccc(-c3ccc(C#N)cc3F)cc2)CC1` [HMC-C-06-A, 4′-Cyano-2′-fluoro-N-((1r,4r)-4-hydroxy-4-methylcyclohexyl)-[1,1′-biphenyl]-4-sulfonamide] were 4 h, 110 µg/mL (≈ 283 µM), 190 nM and 710 nM.
With `C[C@]1(O)CC[C@@H](NS(=O)(=O)c2ccc(-c3ncc(Cl)cc3Cl)c(F)c2)CC1` [HMC-N-04-B], at hERG, the inhibition at 5 min, 30 µM is 60%.
